Patent US20250221987A1, “PIPERAZINO RING-CONTAINING DERIVATIVE, PHARMACEUTICALLY ACCEPTABLE SALT THEREOF, PREPARATION METHOD THEREFOR, AND APPLICATION THEREOF” (ACERAND THERAPEUTICS (HONG KONG) LIMITED, priority 2022, published 2025)
Read-outs that look alike come from different tables or passages of the source.

Experiments:
MDA-MB-436 cells = assay: Proliferation activity assay of MDA-MB-436 cells (CellTiter-Glo); type: cell-based; details: 4000 cells seeded, 6 days incubation, read-out: MDA-MB-436 proliferation inhibition IC50
Description: Complete culture medium was prepared and mixed thoroughly. The cells were resuscitated and cultured for about two passages to select a cell line in good growth condition. The cell culture flask was removed from the incubator. Cell adherence: the culture medium was aspirated, then the cells were washed once with trypsin to discard the waste liquid, and 3 mL of fresh trypsin was added to the culture flask for digestion. When the cells were loose to be detached from the wall of the flask, 8 mL of complete culture medium was added thereto to stop trypsin digestion and mixed gently. The cell suspension was transferred to a centrifuge tube with a pipette and centrifuged at 1000 rpm for 5 minutes. The supernatant was discarded. An appropriate volume of culture medium was added to the centrifuge tube and pipetted gently to resuspend the cells evenly. The cells were counted using a Vi-Cell XR cell counter. The cell suspension was adjusted to an appropriate concentration. The cell suspension was added to a 96-well plate at 100 µL/well. The details such as cell name, seeding density, and date were labelled, and the culture plate was placed in a CO2 incubator overnight.
The compound to be tested was prepared into a 10 mM stock solution, which was aliquoted and stored in a −20° C. freezer. The compound solution was added to a 96-well plate using HPD300. The plate was incubated in a CO2 incubator for a total of 6 days.
CellTiter-Glo buffer was melted at room temperature. The lyophilized CellTiter-Glo substrate was equilibrated to room temperature. CellTiter-Glo buffer was added to the CellTiter Glo substrate and mixed thoroughly. A cell plate was taken out and equilibrated to room temperature. 100 μL of mixed CellTiter Glo reagent was added to each well, and the mixture was shaken in the dark for 10 minutes, followed by incubation for 20 minutes. The culture plate was placed into an Enspire reading plate, and the luminescence reading results were recorded. […] A pharmacodynamic inhibition rate curve was plotted by using XLFit, and the IC50 value was calculated. The 4-parameter model [fit=(A+((B−A)/(1+((C/x)^D)))] was used.

PARP1 = PARP1 (Homo sapiens (Human), UniProt P09874); assay: PARP1 enzymatic activity assay; type: biochemical; details: for PARP1/PARP2 inhibition Selectivity multiple N (N = IC50 (PARP2)/IC50 (PARP1)): ratio IC50 (PARP2)/IC50 (PARP1); for IC50: final PARP1 0.02 nM, DNA 0.8 nM, NAD+ 3.5 μM, 60 minutes
Description: 2) After the coating was completed, the coating buffer was discarded.
After washing, the blocking buffer was discarded.
4) 1000× compound was prepared. 1 μL of compound was transferred to a 96-well plate containing 199 μL of reaction buffer (50 mM Tris-HCl (pH 7.5), 0.005% Tween-20, 0.01% BSA) and mixed well.
5) 25/10×PARP1-DNA solution was prepared with reaction buffer.
6) 25/10×NAD+ solution was prepared with reaction buffer.
8) Primary antibody was 2000-fold diluted with the blocking buffer. 20 μL of primary antibody was added to the reaction plate, which was incubated at room temperature for 1.5 hours.
9) The primary antibody was discarded.
10) Secondary antibody was 2000-fold diluted with the blocking buffer.
11) The secondary antibody was discarded.
The chemiluminescence value RLU was read with Envision.

PARP2 = PARP2 (Homo sapiens (Human), UniProt Q9UGN5); assay: PARP2 enzymatic activity assay; type: biochemical; details: Biotin-NAD+ 2 μM, 60 minutes
[1] = Homo sapiens, MDA-MB-436, 144 h

PARP2, sequence (Q9UGN5 whole entry): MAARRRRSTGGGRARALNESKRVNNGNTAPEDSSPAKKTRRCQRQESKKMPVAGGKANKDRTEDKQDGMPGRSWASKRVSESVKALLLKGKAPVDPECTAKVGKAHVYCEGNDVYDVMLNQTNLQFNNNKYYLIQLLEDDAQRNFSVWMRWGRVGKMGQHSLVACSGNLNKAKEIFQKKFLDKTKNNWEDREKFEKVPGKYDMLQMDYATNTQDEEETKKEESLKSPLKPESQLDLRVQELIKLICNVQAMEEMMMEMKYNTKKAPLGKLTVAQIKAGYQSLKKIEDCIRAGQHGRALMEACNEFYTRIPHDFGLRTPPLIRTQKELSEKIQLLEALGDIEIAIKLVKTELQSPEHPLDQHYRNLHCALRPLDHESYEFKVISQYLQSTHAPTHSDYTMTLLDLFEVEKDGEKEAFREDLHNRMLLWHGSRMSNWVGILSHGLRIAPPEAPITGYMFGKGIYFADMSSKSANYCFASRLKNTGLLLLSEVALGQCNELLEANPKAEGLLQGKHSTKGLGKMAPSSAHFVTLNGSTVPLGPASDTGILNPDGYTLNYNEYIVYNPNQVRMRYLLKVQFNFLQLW
PARP1, sequence (P09874 whole entry): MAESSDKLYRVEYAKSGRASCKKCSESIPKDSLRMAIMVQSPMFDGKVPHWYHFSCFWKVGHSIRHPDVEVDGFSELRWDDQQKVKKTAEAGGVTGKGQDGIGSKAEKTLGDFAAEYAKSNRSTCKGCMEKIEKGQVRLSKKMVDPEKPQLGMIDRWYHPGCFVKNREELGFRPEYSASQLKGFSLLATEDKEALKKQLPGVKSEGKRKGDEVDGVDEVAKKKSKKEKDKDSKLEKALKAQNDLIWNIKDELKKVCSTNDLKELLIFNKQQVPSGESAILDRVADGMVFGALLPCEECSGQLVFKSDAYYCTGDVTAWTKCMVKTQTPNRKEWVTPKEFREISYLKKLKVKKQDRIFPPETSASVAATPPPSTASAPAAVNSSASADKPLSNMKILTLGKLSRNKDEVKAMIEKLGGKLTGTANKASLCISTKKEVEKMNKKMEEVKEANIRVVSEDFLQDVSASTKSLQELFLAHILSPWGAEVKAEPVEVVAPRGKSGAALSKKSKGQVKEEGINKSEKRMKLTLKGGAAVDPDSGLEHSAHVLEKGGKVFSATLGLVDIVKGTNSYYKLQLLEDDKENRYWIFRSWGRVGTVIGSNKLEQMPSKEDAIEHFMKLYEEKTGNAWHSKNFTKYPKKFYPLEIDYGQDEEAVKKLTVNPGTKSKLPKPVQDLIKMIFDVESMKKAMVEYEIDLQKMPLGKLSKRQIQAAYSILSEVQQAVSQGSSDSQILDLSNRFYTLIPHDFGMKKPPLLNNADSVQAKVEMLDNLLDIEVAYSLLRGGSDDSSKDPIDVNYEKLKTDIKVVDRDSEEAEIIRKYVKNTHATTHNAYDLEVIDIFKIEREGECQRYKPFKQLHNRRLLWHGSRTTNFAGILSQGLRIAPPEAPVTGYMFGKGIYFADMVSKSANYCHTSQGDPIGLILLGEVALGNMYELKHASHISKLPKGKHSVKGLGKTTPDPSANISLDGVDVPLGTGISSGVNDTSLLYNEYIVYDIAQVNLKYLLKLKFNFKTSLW

SMILES | IC50 (MDA-MB-436 cells; [1]) | PARP1/PARP2 inhibition Selectivity multiple N (N = IC50 (PARP2)/IC50 (PARP1)) (PARP1) | IC50 (PARP1) | IC50 (PARP2; final PARP2 […]) | IC50 (MDA-MB-436 cells) | IC50 (PARP2; final PARP2 1.5 nM)
CNC(=O)c1ccc(N2CCN(Cc3cnc4c5c(c(=O)[nH]c4c3)CCC5)[C@@H]3C[C@@H]32)cn1 (relative stereo) [Example 7, cis-N-methyl-5-(5-((6-oxo-6,7,8,9-tetrahydro-5H-cyclopenta[c][1,5]naphthyridin-3-yl)methyl)-2,5-diazabicyclo[4.1.0]heptan-2-yl)picolinamide] | 13 nM |  |  |  |  | 
CCc1cc2ncc(CN3CCN(c4ccc(C(=O)NC5CC5)nc4)[C@H]4CC[C@H]43)cc2[nH]c1=O (relative stereo) [Example 46, cis-N-cyclopropyl-5-(5-((7-ethyl-6-oxo-5,6-dihydro-1,5-naphthyridin-3-yl)methyl)-2,5-diazabicyclo[4.2.0]octan-2-yl)pyridine-2-carboxamide] | 5 nM |  |  |  |  | 
CCc1cc2ncc(CN3CCN(c4ccc(C(=O)NC)nc4)C4CCC43)cc2[nH]c1=O (stereo not shown) [Example 2, 5-(5-((7-ethyl-6-carbonyl-5,6-dihydro-1,5-naphthyridin-3-yl)methyl)-2,5-diazabicyclo[4.2.0]octan-2-yl)-N-methylpyridine-2-carboxamide] | 5 nM | 16 |  |  |  | 
CCc1cc2ncc(CN3CCN(c4ccc(C(=O)NC)nc4)[C@@H]4CC[C@H]43)cc2[nH]c1=O [Example 2-3, 5-((1R,6R)-5-((7-ethyl-6-carbonyl-5,6-dihydro-1,5-naphthyridin-3-yl)methyl)-2,5-diazabicyclo[4.2.0]octan-2-yl)-N-methylpyridine-2-carboxamide] |  | 48 |  |  |  | 
CCc1cc2ncc(CN3CCN(c4ccc(C(=O)NC)nc4)[C@H]4CC[C@@H]43)cc2[nH]c1=O [Example 2-4, 5-((1S,6S)-5-((7-ethyl-6-carbonyl-5,6-dihydro-1,5-naphthyridin-3-yl)methyl)-2,5-diazabicyclo[4.2.0]octan-2-yl)-N-methylpyridine-2-carboxamide] | 2 nM | 40 |  |  |  | 
CCc1cc2nnc(CN3CCN(c4ccc(C(=O)NC)nc4)[C@@H]4C[C@@H]43)cc2[nH]c1=O [Example 5-1] |  | 83 | 0.9 nM | 75 nM |  | 
CCc1cc2nnc(CN3CCN(c4ccc(C(=O)NC)nc4)C4C[C@H]43)cc2[nH]c1=O (stereo partly shown) [Example 5-2] |  | 64 | 0.5 nM | 32 nM |  | 
CCc1cc2nnc(CN3CCN(c4ccc(C(=O)NC)nc4)C4C[C@H]43)cc2[nH]c1=O (stereo partly shown) [Example 5] |  | 62 | 0.5 nM | 31 nM |  | 
CCc1cc2nnc(CN3CCN(c4ccc(C(=O)NC)nc4)[C@@H]4CC[C@@H]43)cc2[nH]c1=O [Example 10-1] |  | 45 | 0.8 nM | 36 nM |  | 
CCc1cc2nnc(CN3CCN(c4ccc(C(=O)NC)nc4)C4CC[C@@H]43)cc2[nH]c1=O (stereo partly shown) [Example 10-2] |  | 85 | 0.9 nM | 77 nM | 5 nM | 
CCc1cc2nnc(CN3CCN(c4ccc(C(=O)NC)nc4)C4CC[C@H]43)cc2[nH]c1=O (stereo partly shown) [Example 10] | 9 nM | 105 | 1 nM | 105 nM |  | 
CCc1nc2ncc(CN3CCN(c4ccc(C(=O)NC)nc4)[C@H]4CC[C@H]43)cc2[nH]c1=O [Example 11-1, 5-((1S,6R)-5-((3-ethyl-2-oxo-1,2-dihydropyrido[2,3-b]pyrazin-7-yl)methyl)-2,5-diazabicyclo[4.2.0]octan-2-yl)-N-methylpicolinamide] |  | 69 | 3.9 nM | 272 nM |  | 
CCc1nc2ncc(CN3CCN(c4ccc(C(=O)NC)nc4)[C@@H]4CC[C@@H]43)cc2[nH]c1=O [Example 11-2, 5-((1R,6S)-5-((3-ethyl-2-oxo-1,2-dihydropyrido[2,3-b]pyrazin-7-yl)methyl)-2,5-diazabicyclo[4.2.0]octan-2-yl)-N-methylpicolinamide] | 9 nM | 135 | 1.5 nM |  |  | 202 nM
CNC(=O)c1ccc(N2CCN(Cc3cnc4c5c(c(=O)[nH]c4c3)CCC5)[C@@H]3CC[C@@H]32)cn1 [Example 12-1, N-methyl-5-[(1S,6R)-5-((6-oxo-5H,7H,8H,9H-cyclopenta[c][1,5]naphthyridin-3-yl)methyl)-2,5-diazabicyclo[4.2.0]octan-2-yl]pyridine-2-carboxamide] | 15 nM | 60 | 0.3 nM |  |  | 18 nM
CNC(=O)c1ccc(N2CCN(Cc3cnc4cc(C5CC5)c(=O)[nH]c4c3)[C@@H]3CC[C@@H]32)cn1 [Example 16-2] | 6 nM |  |  |  |  | 
CNC(=O)c1ccc(N2CCN(Cc3cnc4cc(C(F)(F)F)c(=O)[nH]c4c3)[C@@H]3CC[C@@H]32)cn1 [Example 30-1, N-methyl-5-((1S,6R)-5-((6-oxo-7-(trifluoromethyl)-5,6-dihydro-1,5-naphthyridin-3-yl)methyl)-2,5-diazabicyclo[4.2.0]octan-2-yl)picolinamide] | 2 nM |  |  |  |  | 
CNC(=O)c1ccc(N2CCN(Cc3cnc4cc(OC)c(=O)[nH]c4c3)[C@H]3CC[C@H]32)cn1 [Example 33-1] |  | >45 |  |  |  | 
CNC(=O)c1ccc(N2CCN(Cc3cnc4cc(OC)c(=O)[nH]c4c3)[C@@H]3CCC32)cn1 (stereo partly shown) [Example 33-2] |  | >130 | 2.3 nM | > 300 nM |  | 
CCc1cc2ncc(CN3CCN(c4ccc(C(=O)NC5CC5)nc4)[C@H]4CC[C@H]43)cc2[nH]c1=O [Example 46-1, N-cyclopropyl-5-((1S,6R)-5-((7-ethyl-6-oxo-5,6-dihydro-1,5-naphthyridin-3-yl)methyl)-2,5-diazabicyclo[4.2.0]octan-2-yl)picolinamide] | 8 nM |  |  |  |  | 
CCc1cc2ncc(CN3CCN(c4ccc(C(=O)NC5CC5)nc4)[C@@H]4CC[C@@H]43)cc2[nH]c1=O [Example 46-2, N-cyclopropyl-5-((1R,6S)-5-((7-ethyl-6-oxo-5,6-dihydro-1,5-naphthyridin-3-yl)methyl)-2,5-diazabicyclo[4.2.0]octan-2-yl)picolinamide] | 2 nM |  |  |  |  | 
CCc1cc2ncc(CN3CCN(c4ccc(C(=O)NC5CC5)nc4F)[C@H]4CC[C@H]43)cc2[nH]c1=O [Example 47-2, N-cyclopropyl-5-((1S,6R)-5-((7-ethyl-6-oxo-5,6-dihydro-1,5-naphthyridin-3-yl)methyl)-2,5-diazabicyclo[4.2.0]octan-2-yl)-6-fluoropicolinamide] | 3 nM |  |  |  |  | 
CCc1cc2ncc(CN3CCN(c4ccc(C(=O)NC5CCC5)nc4)[C@@H]4CC[C@@H]43)cc2[nH]c1=O [Example 48-1, N-cyclobutyl-5-((1R,6S)-5-((7-ethyl-6-oxo-5,6-dihydro-1,5-naphthyridin-3-yl)methyl)-2,5-diazabicyclo[4.2.0]octan-2-yl)picolinamide] | 12 nM |  |  |  |  | 
CCc1cc2ncc(CN3CCN(c4ccc(C(=O)NC5CCC5)nc4)[C@H]4CC[C@H]43)cc2[nH]c1=O [Example 48-2, N-cyclobutyl-5-((1S,6R)-5-((7-ethyl-6-oxo-5,6-dihydro-1,5-naphthyridin-3-yl)methyl)-2,5-diazabicyclo[4.2.0]octan-2-yl)picolinamide] | 2 nM |  |  |  |  | 
